Measurements reported in patent publication US12329765B2, “Targeted nanoparticle for the treatment of traumatic brain injury and other CNS diseases” (priority 2021, dated 2025).

Legend:
[1] = in vivo; cited from earlier work
[2] = Minocycline forced degradation (acid, base, H2O2, light) by HPLC; assay type: physicochemical
Description: Measuring the drug molecule's stability is essential as it directly impacts the formulation strategy when designing the drug-loaded nanoparticle.

[3] = 35 day observation
Description: Before treatment, body weight was determined for all the animals. During the course of observation period of 35 days, the animals were followed up twice daily for symptoms of any adverse effect and were physically examined for the sign of morbidity throughout the study period.
On day 0, 15 and 35, all the animals were weighed, and their weights were recorded.

[4] = In vivo toxicity: gross observable behavioral effects (Irwin); set-up: species or system rat; conditions: 35 days
[5] = rat models; cited from earlier work

For `C[C@H]1C[C@H]2[C@@H]3CCC4=CC(=O)C=C[C@]4(C)[C@@]3(F)[C@@H](O)C[C@]2(C)[C@@]1(O)C(=O)COP(=O)(O)O` [free betamethasone phosphate, betamethasone phosphate], the “time to disappearance from the cochlea” value [1] is listed as no more than 12 h.

For `CN(C)c1ccc(O)c2c1C[C@H]1C[C@H]3[C@H](N(C)C)C(O)=C(C(N)=O)C(=O)[C@@]3(O)C(O)=C1C2=O` [minocycline, Minocycline], the recovery at 1 h, 100 μg/mL ([2]; 1 M HCl solution, HCl (1 M, 1 h RT)) was 88.9%, the recovery at 1 h, 100 μg/mL ([2]; 1 M NaOH solution, NaOH (1 M, 1 h RT)) was 74% and the recovery at 24 h, 100 μg/mL ([2]; UV Light (24 h light exposure)) was 98.54 ± 0.71%. The “body weight versus saline treated control group” value [3] was “no reduction in body weight”, the “gross observable behavioral parameters (alertness, visual placing, passivity, spontaneous motor activity, touch response)” value [4] was “mild changes in a few behavioral parameters” and the half-life [5] was 2 to 3 h.
